{"source": "the METLIN SMRT retention time set (Domingo-Almenara et al. 2019)", "data": [{"test": "gradient 5% acetonitrile 3 min, to 50% in 2 min, to 85% in 15 min, held 3 min, 100 µL/min", "conditions": "column: Zorbax Extend-C18 2.1 x 50 mm; eluents: water / acetonitrile, 0.1% formic acid", "procedure,_shortened": "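A Zorbax Extend-C18 column (2.1 × 50 mm, 1.8 μm) run at 100 μL/min with water and acetonitrile, both containing 0.1% formic acid, separated mixtures of ~100 pure standards. The HPLC was coupled to a quadrupole time-of-flight mass spectrometer operated in positive and negative ionization mode, with dead and dwell volumes of 40 μL and 900 μL. Each retention time was taken from a computationally picked adduct peak that was then manually inspected.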", "units": {"RP-LC retention time": "s"}, "values": [{"smiles": "O=C(c1ccc(F)cc1)N1CCN(c2nc(CN3CCOCC3)cs2)CC1", "RP-LC retention time": 597}, {"smiles": "COc1ccc(CCNC(=O)CN2C(=O)CSc3cccn3-c3ccccc32)cc1OC", "RP-LC retention time": 831}, {"smiles": "CCCN1C(=O)COc2ccc(-c3noc(-c4ccc(NC(C)=O)cc4)n3)cc21", "RP-LC retention time": 948}, {"smiles": "COc1ccccc1NC(=O)C1CC(=O)N(CCc2c[nH]c3ccc(Cl)cc23)C1", "note": "(stereo not given)", "RP-LC retention time": 829}, {"smiles": "O=C(CCC1CCCC1)NCCC1CCN(C(=O)Nc2ccccc2)CC1", "RP-LC retention time": 876}, {"smiles": "CC(=O)N1CCc2nn(CC(=O)Nc3ccccc3Cl)c(=O)cc2C1", "RP-LC retention time": 606}, {"smiles": "CC(=O)Nc1ccc2c(c1)CN(C(=O)c1ccc(F)cc1F)C(C(=O)N(C)C)C2", "note": "(stereo not given)", "RP-LC retention time": 661}, {"smiles": "Cc1ccc(C)c(-c2nc(-c3ccc4c(c3)oc(=O)n4C)no2)c1", "RP-LC retention time": 1220}, {"smiles": "CC1=NS(=O)(=O)N(C)C=C1C(=O)OCc1nc(-c2ccc(OC(F)(F)F)cc2)no1", "RP-LC retention time": 1100}, {"smiles": "CCN(CCN(C)C)c1ccc(C(=O)O)cc1NS(=O)(=O)c1ccc(Br)cc1", "RP-LC retention time": 648}, {"smiles": "O=C(c1ccncc1)N1CCC2(CC1)N=C(c1ccccc1)NO2", "RP-LC retention time": 611}, {"smiles": "Cc1cc(C)cc(NC(=O)N2CCC(c3cc(N)on3)CC2)c1", "RP-LC retention time": 728}, {"smiles": "CCCS(=O)(=O)c1nc2ccc(NS(=O)(=O)Cc3ccc(Cl)cc3)cc2s1", "RP-LC retention time": 953}, {"smiles": "Cn1c(=O)c2ccn(CC(=O)NCCCc3ccccc3)c2n(C)c1=O", "RP-LC retention time": 699}, {"smiles": "CCn1cnc2cc(CNC(=O)c3cc(C)cc(C)c3)ccc21", "RP-LC retention time": 646}, {"smiles": "Cc1ccc(F)c2c(=O)c3c([nH]c12)CCN(CC(=O)Nc1ccc(Cl)cc1)C3", "RP-LC retention time": 646}, {"smiles": "CCNC(=O)NC1CCN(C(=O)C2CCC2)C1", "note": "(stereo not given)", "RP-LC retention time": 578}, {"smiles": "CCCCN(C)c1ccc(NC(=O)CC(C)C)c(C(=O)O)c1", "RP-LC retention time": 729}, {"smiles": "Cc1[nH]c(C(=O)N2CCCC(C(=O)NC3CCCCC3)C2)c(C)c1C(=O)OC(C)C", "note": "(stereo not given)", "RP-LC retention time": 861}, {"smiles": "COc1ccc(NC(=O)c2ccc(-n3cnc(NC(=O)C4CC4)c3)cc2)cc1OC", "RP-LC retention time": 645}, {"smiles": "Cc1ccc(S(=O)(=O)N2CCC3(CC2)NCCCN=C3NC2CCCC2)cc1Cl", "RP-LC retention time": 814}, {"smiles": "O=C(Nc1nnc(C2CC(=O)N(c3ccc(F)cc3)C2)o1)c1ccccc1F", "note": "(stereo not given)", "RP-LC retention time": 701}, {"smiles": "O=C(c1csc(S(=O)(=O)N2CCC(C(=O)N3CCOCC3)CC2)c1)N1CCOCC1", "RP-LC retention time": 620}, {"smiles": "CC(C)N1C[C@H](O)C[C@H]1c1nnc2n1CCN(C(=O)c1ccc3ccccc3n1)C2", "RP-LC retention time": 586}, {"smiles": "CCc1ccc(NS(=O)(=O)c2ccc3c(c2)CCCC(=O)N3)cc1", "RP-LC retention time": 794}, {"smiles": "COC(=O)C(C)NC(=O)NCc1cccn1Cc1ccc(F)cc1", "note": "(stereo not given)", "RP-LC retention time": 814}, {"smiles": "CCCCN(CCCC)c1nc(-c2ccccc2)nc2ccccc12", "RP-LC retention time": 976}, {"smiles": "CC(C)Cn1ccc2c(cc(C(=O)Nc3ccc(C(C)C)cc3)n2C)c1=O", "RP-LC retention time": 1030}, {"smiles": "Cc1cccc(N2CCN(C(=O)C3CCN(Cc4cn(C)c5ccc(Cl)cc45)CC3)CC2)c1C", "RP-LC retention time": 878}, {"smiles": "CCc1ccc(-c2nc(-c3ccc4nnc(C)n4c3)no2)cc1", "RP-LC retention time": 1080}, {"smiles": "CCc1ccc(S(=O)(=O)Nc2ccc3c(c2)nc(-c2ccc(C(=O)NC)cc2)n3C)cc1", "RP-LC retention time": 674}, {"smiles": "CCN1CCCn2cc(S(=O)(=O)Nc3cc(F)cc(F)c3)cc2C1=O", "RP-LC retention time": 768}, {"smiles": "CC(C)CC(=O)Nc1ccc(-n2cnc(C(=O)NC3CCCCCC3)c2)nc1", "RP-LC retention time": 865}, {"smiles": "CC(=O)N1CCc2cc(C)c(S(=O)(=O)NC(C)C)cc21", "RP-LC retention time": 740}, {"smiles": "Cc1ccc(N2CC(c3noc(-c4ccccc4C)n3)CC2=O)cc1", "note": "(stereo not given)", "RP-LC retention time": 1090}, {"smiles": "COc1ccc(NC(=O)N2CCCC2c2nc(-c3ccccc3OC)no2)c(OC)c1", "note": "(stereo not given)", "RP-LC retention time": 871}, {"smiles": "Cc1nnc(N2CCCC(C(=O)NCCc3ccccc3)C2)c2nn(-c3ccccc3)c(C)c12", "note": "(stereo not given)", "RP-LC retention time": 726}, {"smiles": "Cc1cc(-c2nnc(C3CC3)o2)c(C)n1CC(=O)NCc1ccc(Cl)cc1", "RP-LC retention time": 850}, {"smiles": "CCOc1ccc2ncc(C(=O)c3ccccc3)c(N3CCN(C)CC3)c2c1", "RP-LC retention time": 527}, {"smiles": "CCn1c(=O)c(N2CCC(NC(=O)Nc3cc(C)cc(C)c3)CC2)nc2cccnc21", "RP-LC retention time": 1010}, {"smiles": "CCc1nc2cc(N3CCC(C(=O)Nc4cc(C)ccc4OC)CC3)cnc2nc1CC", "RP-LC retention time": 992}, {"smiles": "Cc1ccc(Nc2nc(-c3ccc(C)cc3C)cs2)nc1", "RP-LC retention time": 965}, {"smiles": "COc1ccc(-n2c(=O)n(C)c(=O)c3cc(C(=O)NCc4ccco4)cnc32)cc1", "RP-LC retention time": 764}, {"smiles": "COc1cc(Cl)ccc1-c1nc(-c2ccc3c(c2)oc(=O)n3C(C)C)no1", "RP-LC retention time": 1220}, {"smiles": "COc1ccc(C2Cn3cnc(C(=O)N4CCC(C(=O)Nc5ccc(C)cc5C)CC4)c3CO2)cc1", "note": "(stereo not given)", "RP-LC retention time": 740}, {"smiles": "COCc1nc(C2CCN(S(=O)(=O)Cc3ccccc3)C2)no1", "note": "(stereo not given)", "RP-LC retention time": 795}, {"smiles": "CC(C)CCNC(=O)c1ccc2c(=O)n(-c3ccc(F)cc3)c(N3CCCC3)nc2c1", "RP-LC retention time": 912}, {"smiles": "CCCCC(=O)N1CCc2c(c(C(=O)NCc3ccc4c(c3)OCO4)nn2C)C1", "RP-LC retention time": 767}, {"smiles": "CSc1ncn(-c2nc(NC(C)C)nc(NC(C)C)n2)n1", "RP-LC retention time": 875}, {"smiles": "CC(C)CC(=O)Nc1cc2c(cc1S(=O)(=O)c1ccccc1)n(C)c(=O)n2C", "RP-LC retention time": 786}, {"smiles": "Cc1nc2cc(-c3noc(Cc4cccc(Cl)c4)n3)ccc2o1", "RP-LC retention time": 1070}, {"smiles": "CCn1c(-c2ccccc2)cc(C(=O)NC)c1C", "RP-LC retention time": 807}, {"smiles": "O=C(NCC1CCOCC1)Nc1cccc(Cl)c1", "RP-LC retention time": 735}, {"smiles": "COc1ccc(C(=O)N2C[C@@H]3C[C@H]2C[C@@H]3NS(=O)(=O)c2ccccc2)cc1OC", "RP-LC retention time": 723}, {"smiles": "CCOc1ccc(-c2cn3ccn(-c4ccc(Cl)cc4)c(=O)c3n2)cc1", "RP-LC retention time": 962}, {"smiles": "CCCCOc1ccc(C(=O)N(Cc2ccc(Br)o2)C2CCS(=O)(=O)C2)cc1", "note": "(stereo not given)", "RP-LC retention time": 1090}, {"smiles": "O=C(NCCc1csc(-c2ccccc2)n1)C1CCN(C(=O)c2ccco2)CC1", "RP-LC retention time": 749}, {"smiles": "CC(=O)N1CCc2ccccc2C1C(=O)NCc1ccc(F)cc1", "note": "(stereo not given)", "RP-LC retention time": 762}, {"smiles": "Cc1c(F)cccc1NC(=O)N1CCC(n2cnnc2C2CC2)C1", "note": "(stereo not given)", "RP-LC retention time": 655}, {"smiles": "CCOC(=O)c1ccc(NC(=O)c2cc3ccccc3c(=O)s2)cc1", "RP-LC retention time": 947}, {"smiles": "Cn1c(=O)c2c(nc(/C=C/c3cccc(Cl)c3)n2C)n(C)c1=O", "RP-LC retention time": 1040}, {"smiles": "CCc1cc(C(c2cccc(F)c2)N2CCN(C)CC2)c(NC(=O)c2ccccc2)s1", "note": "(stereo not given)", "RP-LC retention time": 622}, {"smiles": "NC(=O)C1CCN(S(=O)(=O)c2ccc(N3C(=O)CCS3(=O)=O)cc2)CC1", "RP-LC retention time": 622}, {"smiles": "Cc1cc(Cl)ccc1S(=O)(=O)N1CCC(OCc2noc(C3CCCO3)n2)CC1", "note": "(stereo not given)", "RP-LC retention time": 1030}, {"smiles": "NC(=NCc1ccc(Cl)cc1Cl)NC(=O)c1nc(Cl)c(N)nc1N", "RP-LC retention time": 770}, {"smiles": "CCOC(=O)C1=C(CN2CCN(C(C)CC)CC2)NC(=O)NC1c1ccc(OC(C)C)cc1", "note": "(stereo not given)", "RP-LC retention time": 668}, {"smiles": "CC(C)S(=O)(=O)c1cc2c(cc1NC(=O)c1ccc(Br)cc1)n(C)c(=O)n2C", "RP-LC retention time": 951}, {"smiles": "O=C(NCc1ccc(F)cc1F)C1CCN(c2cnc(N3CCCC3)nc2)CC1", "RP-LC retention time": 668}, {"smiles": "NC(=O)c1ccsc1NC(=O)c1ccc(S(=O)(=O)N2CCc3ccccc3C2)cc1", "RP-LC retention time": 877}, {"smiles": "COc1ccc(-c2cc(N)n[nH]2)c(OC)c1", "RP-LC retention time": 595}, {"smiles": "Cc1ccc(CNC(=O)C2(CCO)CCN(c3ncccn3)C2)o1", "note": "(stereo not given)", "RP-LC retention time": 602}, {"smiles": "O=C1COc2ccccc2N1Cc1nc(-c2ccc(Br)cc2)no1", "RP-LC retention time": 1110}, {"smiles": "CCCN1C(=O)c2cc(S(=O)(=O)Nc3ccc(Cl)cc3)ccc2Oc2cccnc21", "RP-LC retention time": 1110}, {"smiles": "CSc1cccc(NC(=O)C2CCN(C(=O)c3cc(-c4ccncc4)n[nH]3)CC2)c1", "RP-LC retention time": 637}, {"smiles": "O=C(Nc1cccc(F)c1)C1CCN(C(=O)c2ncn3c2COC(c2ccccc2)C3)CC1", "note": "(stereo not given)", "RP-LC retention time": 921}, {"smiles": "Cc1cc(C(=O)NCC2Cn3cccc3C(=O)N2C)nn1C", "note": "(stereo not given)", "RP-LC retention time": 599}, {"smiles": "Cc1ccc(NC(=O)C2CCN(c3cncnc3N3CCOCC3)CC2)cc1C", "RP-LC retention time": 670}, {"smiles": "O=C(CCC1CCCC1)Nc1ccc(CC(=O)NC2CC2)cc1", "RP-LC retention time": 738}, {"smiles": "Cc1ccc(N2CCC(NC(=O)c3ccc4nc[nH]c4c3)C2=O)cc1", "note": "(stereo not given)", "RP-LC retention time": 607}, {"smiles": "COc1ccc(NC(=O)Cn2cnc3c(sc4nc(-c5ccccc5)ccc43)c2=O)c(OC)c1", "RP-LC retention time": 991}, {"smiles": "CC(C)C(=O)NCCc1csc(C2CCCN(C(=O)C(C)(C)C)C2)n1", "note": "(stereo not given)", "RP-LC retention time": 734}, {"smiles": "Cc1ccc(CNC(=O)CN2C(=O)NC3(CCCCC3)C2=O)cc1", "RP-LC retention time": 774}, {"smiles": "CN1CCN(C(=O)c2csc(N3CCN(c4ccc(F)cc4)CC3)n2)CC1", "RP-LC retention time": 643}, {"smiles": "COC(=O)c1c(C)[nH]c(C(=O)N2CCC(CC(=O)N3CCCC3)CC2)c1C", "RP-LC retention time": 628}, {"smiles": "CCN(CC)CCNC(=O)c1nc(-c2oc3ccc(C)cc3c2C)no1", "RP-LC retention time": 695}, {"smiles": "Cc1c(S(=O)(=O)N2CCOCC2)cc(C(=O)N2CCCC2)n1C", "RP-LC retention time": 658}, {"smiles": "COc1ccc(S(=O)(=O)c2cnc3cc4c(cc3c2N2CCN(C)CC2)OCCO4)cc1", "RP-LC retention time": 608}, {"smiles": "CN(C)S(=O)(=O)c1ccc(N)c([N+](=O)[O-])c1", "RP-LC retention time": 773}, {"smiles": "CCOc1ccc(CC(=O)NC(CC(C)C)C(=O)Nc2nc3ccccc3[nH]2)cc1OCC", "note": "(stereo not given)", "RP-LC retention time": 758}, {"smiles": "CC1Oc2ccc(S(=O)(=O)N3CCC(C(=O)NC4CCCCCCC4)CC3)cc2NC1=O", "note": "(stereo not given)", "RP-LC retention time": 907}]}]}
